Measured values from ChEMBL document CHEMBL5728544, “Compounds and methods for the targeted degradation of interleukin-1 receptor- associated kinase 4 polypeptides” (2021).

Target: T1, Interleukin-1 receptor-associated kinase 4 (Homo sapiens, UniProt Q9NWZ3)
T1 sequence (Q9NWZ3 whole entry): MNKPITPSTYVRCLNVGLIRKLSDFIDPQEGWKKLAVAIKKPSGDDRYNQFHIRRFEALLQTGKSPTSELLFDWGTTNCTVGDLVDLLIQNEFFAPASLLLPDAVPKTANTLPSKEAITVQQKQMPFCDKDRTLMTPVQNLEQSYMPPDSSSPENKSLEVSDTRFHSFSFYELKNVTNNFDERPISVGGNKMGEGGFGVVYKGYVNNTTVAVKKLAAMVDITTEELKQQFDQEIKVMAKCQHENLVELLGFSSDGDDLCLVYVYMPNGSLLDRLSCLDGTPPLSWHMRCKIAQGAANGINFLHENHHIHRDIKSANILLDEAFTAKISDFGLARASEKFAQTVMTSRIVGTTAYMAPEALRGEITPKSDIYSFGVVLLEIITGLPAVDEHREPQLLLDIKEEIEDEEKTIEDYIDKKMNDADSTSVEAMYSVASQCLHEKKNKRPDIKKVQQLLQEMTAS
Experiment: Biochemical Assay: A Z′-Lyte assay based on a fluorescence resonance energy transfer (FRET) readout was developed for measuring IRAK4-dependent phosphorylation of a FRET-peptide substrate as described by Thermo Fisher Scientific (Grand Island, N.Y.). At a starting concentration of 1.5 mM, the identified compounds were serially diluted with 100% dimethyl sulfoxide (DMSO) in 3-fold increments, into Greiner bio-one 96-well plates (cat. #: 650201, Greiner bio-one, Monroe, N.C.). Compounds were then transferred to intermediate Greiner bio-one 96-well plates and diluted 10-fold with Kinase assay buffer (25 mM HEPES, pH 7.5, 10 mM MgCl2, 10 mM MnCl2, 1 mM EGTA, and 0.01% Brij-35, 2 mM DTT). Three μL of the serially diluted compounds were then transferred in duplicate to low-volume 384-well black proxiplates (cat. #: 6008269; Perkin Elmer, Akron, Ohio), to give duplicate twelve-point concentration curves. Six μl of a 2.5× solution of IRAK4 enzyme (cat #: 40064, BPS Bioscience, San Diego, Calif.) in kinase buffer was added to each well, followed by a 10 minutes pre-incubation step. Reactions were initiated by adding 6 μl of a 2.5× substrate mix of ATP and Z′-Lyte Ser/Thr 7 peptide (cat. #: PV3180, Thermo Fisher Scientific, Grand Island, N.Y.) and proceeded at room temperature for 1 hour. […]

- IC50: < 30 nM
SMILES: O=C1CCC(N2C(=O)c3ccc(OC4CCC(CN5CCN(Cc6ccc7c(c6)nc(NC(=O)c6cccc(C(F)(F)F)c6)n7C6CCC(CO)CC6)CC5)CC4)cc3C2=O)C(=O)N1 (stereo unspecified)
